From patent publication US7125671B2, “Nucleic acid amplification with terminal-phosphate labeled nucleotides” (GE Healthcare Bio-Sciences Corp., priority 2003, dated 2006)

Key:
T. ba polymerase = assay: PCR amplification with terminal-phosphate labeled nucleoside polyphosphates in the presence of stabilizing additives (FIG. 6); format: biochemical, Thermococcus barosii; details: dT4P-Me, dC4P-Me, 0.25 mM MnCl2, M13 DNA, 35 cycles
Method: Polymerase chain reaction (PCR) mixtures (20 μl) contained 25 mM Hepes (pH 8.1), 10 mM KCl, 2 mM MgSO4, 0.25 mM MnCl2, 1 mg/ml bovine serum albumin, 0.01% (v/v) Tween-20 and 10–25 mM salt as shown in FIG. 6. Each sample also contained 20 μm each of dA4P-Me, dT4P-Me, dC4P-Me, 200 μm dG4P-FlEt, 0.006 units/μl BAP, 2 units of T. ba polymerase, 0.1 μm −40 M13 forward primer, 0.1 μm −28 M13 reverse primer and 0.2 ng M13 DNA. In addition to the terminal-phosphate labeled nucleotide, terminal methyl-blocked dNTP's were used instead of normal dNTP's to prevent degradation by BAP (phosphatase). Latter is required for signal generation from dye-polyphosphate after the nucleotide is incorporated into DNA by polymerase. Reactions were carried out for 35 thermal cycles of 90° C., 30 sec.; 55° C., 30 sec.; and 65° C., 300 sec. Reaction products were loaded onto 1.6% agarose gels. The gels were stained with SYBR Gold (Molecular Probes) according to the manufacturers' instructions and scanned at 532 nm using a Typhoon fluorescence scanner (Amersham Biosciences). Gel size markers were a 100 bp ladder (Amersham Biosciences).

[1] = molecular target: pfu (with A486Y mutation) polymerase (Pyrococcus furiosus, UniProt P61875, A486Y); assay: Quantitative PCR with terminal-phosphate labeled nucleoside polyphosphates on ABI 7900; format: biochemical; details: 200 μm dG4P-FlEt with dA4P-Me, dT4P-Me, dC4P-Me; BAP; 50 cycles; FIG. 7
Chain of pfu (with A486Y mutation) polymerase (P61875 whole entry A486Y): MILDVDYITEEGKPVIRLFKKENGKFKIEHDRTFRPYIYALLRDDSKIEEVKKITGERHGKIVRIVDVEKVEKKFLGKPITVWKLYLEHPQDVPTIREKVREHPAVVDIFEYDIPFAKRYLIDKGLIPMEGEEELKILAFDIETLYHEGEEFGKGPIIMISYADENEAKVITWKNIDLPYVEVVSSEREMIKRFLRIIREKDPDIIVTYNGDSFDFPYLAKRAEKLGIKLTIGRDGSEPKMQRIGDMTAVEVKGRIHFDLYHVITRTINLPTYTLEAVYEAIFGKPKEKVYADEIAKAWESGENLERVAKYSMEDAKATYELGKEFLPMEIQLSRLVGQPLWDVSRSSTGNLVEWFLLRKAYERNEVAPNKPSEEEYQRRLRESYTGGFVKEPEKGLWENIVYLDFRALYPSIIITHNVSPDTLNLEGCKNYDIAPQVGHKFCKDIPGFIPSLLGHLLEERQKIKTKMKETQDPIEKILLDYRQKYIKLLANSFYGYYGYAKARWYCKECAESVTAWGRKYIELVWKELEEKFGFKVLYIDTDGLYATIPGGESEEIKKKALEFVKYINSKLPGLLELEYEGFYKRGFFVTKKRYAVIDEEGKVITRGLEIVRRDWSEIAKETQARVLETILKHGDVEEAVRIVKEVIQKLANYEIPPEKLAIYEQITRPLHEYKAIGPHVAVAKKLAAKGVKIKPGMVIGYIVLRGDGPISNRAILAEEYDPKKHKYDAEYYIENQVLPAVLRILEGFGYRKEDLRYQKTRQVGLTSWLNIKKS
Method: Polymerase chain reaction (PCR) mixtures (20 μl) contained 25 mM Tris.HCl (pH 9.0), 10 mM KCl, 2 mM MgSO4, 0.25 mM MnCl2, 1 mg/ml bovine serum albumin and 0.01% (v/v) Tween-20. Each sample also contained 20 μm each of dA4P-Me, dT4P-Me, dC4P-Me, 200 μm dG4P-FlEt, 0.005 units/μl BAP, 2 units of pfu (with A486Y mutation) polymerase, 0.1 μm −40 M13 forward primer, 0.1 μM −28 M13 reverse primer and 1.2×10^6–1.2×10^9 copies of M13 DNA. In addition to the terminal-phosphate labeled nucleotide, the remaining nucleotides were blocked with a methyl group on the terminal phosphate to prevent degradation by BAP. Reactions were carried out for 50 thermal cycles of 90° C., 30 sec.; 55° C., 30 sec.; and 65° C., 300 sec on ABI 7900 instrument.
Reaction products were also loaded onto 1.6% agarose gels. The gels were stained with SYBR Gold (Molecular Probes) according to the manufacturers' instructions and scanned at 532 nm using a Typhoon fluorescence scanner (Amersham Biosciences) to show the formation of PCR product (FIG. 8). Gel size markers were a 100 bp ladder (Amersham Biosciences).

[2] = Non-enzymatic hydrolysis of dT4P-DDAO in the presence of MnCl2, effect of other salts (FIG. 5); details: 10 or 25 mM salt; 0.5 mM MnCl2; 25 mM Hepes pH 8.1; 95° C. for 60 minutes
Method: Twenty μl of 25 mM Hepes, pH 8.1, containing 0.5 mM MnCl2, 1 μm dT4P-DDAO and 10 or 25 mM inorganic or organic salt (see FIG. 5) was heated at 95° C. for 60 minutes. 4 μl of each sample was treated with BAP as described above and read on Tecan ultra plate reader. An unheated sample with MnCl2 (water lane) and a heated sample without Hepes and MnCl2 were used as controls. Fluorescence counts were converted into % degradation as described above.

[3] = Non-enzymatic hydrolysis of dT4P-DDAO in the presence of MnCl2, effect of ammonium sulfate and related salts (FIG. 4); format: physicochemical; details: 10 mM salt; 0.5 mM MnCl2; 25 mM Tris.HCl pH 9.0; 95° C. for 60 minutes
Method: Four μl of each reaction mix was mixed with 16 μl of BAP solution in Hepes (0.005 units BAP/μl) and incubated at 37° C. for 60 minutes. Samples were read on Tecan ultra plate reader. Un heated sample and unheated sample without MnCl2 were used as controls. Raw fluorescence counts were converted into % degradation by using fluorescence counts from a Snake Venom phosphodiesterase hydrolyzed sample as 100% degraded sample.

SMILES	PCR product formation (T. ba polymerase; absence of any stabilizer, with dA4P-Me)	cycle count at fluorescence threshold plotted against input M13 DNA copies [1]	stabilization of dT4P-DDAO (% degradation) [2]	PCR product formation in the presence of the additive (T. ba polymerase; 10–25 mM salt, dA4P-Me, dG4P-FlEt)	stabilization of dT4P-DDAO (% degradation) [3]
CCOc1ccc2c(c1)Oc1cc(OP(=O)(O)OP(=O)(O)OP(=O)(O)OP(=O)(O)OC[C@H]3O[C@@H](n4cnc5c(=O)[nH]c(N)nc54)C[C@@H]3O)ccc1C21OC(=O)c2ccccc21 (some centres unmarked) [dG4P-FlEt, 2′-Deoxyguanosine-5′-(δ-3′-(6′-ethoxyfluorescein)) tetraphosphate]	PCR product was separated	straight line	–	–	–
N.N.O=S(=O)(O)O [ammonium sulfate]	–	–	stabilize the nucleotide	PCR product was separated	clearly stabilizes
